Like-named read-outs stand apart in the source and are kept apart here.
Legend:
platelets = assay: Platelet count, Sysmex cell counter; format: cell-based, human; details: 100 μM compound, 5 Joules/cm^2, Day 5; FIGS. 21A-24A
Method: Samples were diluted 1:3 in blood bank saline.

p-selectin (GMP140) = assay: GMP-140 (p-selectin) expression on platelets, flow cytometry with CD62; format: cell-based, human; details: 100 μM compound, 5 Joules/cm^2, 5 days storage; FIGS. 21C-24C
Method: To measure the effects of the present compounds and methods of decontamination on platelet function using these four indicators, four samples were prepared for each compound tested, two control samples and two containing compound. Three units of human platelets were obtained from the Sacramento Blood Center, Sacramento, Calif. These were each transferred under sterile conditions to 50 ml centrifuge tubes, then aliquots of each unit were transferred into a second set of 50 ml sterile centrifuge tubes. To each centrifuge tube containing platelet concentrate (PC), an aliquot of compound stock was added to reach a final concentration of 100 μM of compound. […] The samples were pipetted gently up and down to mix. Then aliquots (either 3 ml or 8 ml) of each sample was transferred to two sterile Teflon™ Medi-bags™ (American Fluoroseal Co., Silver Springs, Md.) (presently owned by The West Company, Lionville, Pa.). Samples were treated in one of two different sized bags, having either 3 ml or 8 ml capacity. […] For each compound tested, two control samples without compound were prepared by again removing aliquots of platelet concentrate (17 ml if using an 8 ml bag, […] if using a 3 ml bag) from the same one of the first set of 50 ml centrifuge tubes from which the compound sample was drawn, and dividing into Medibags, as before. One of each pair of Medibags containing a compound, and one of each pair of control Medibags, were illuminated for 5 Joules/cm^2 on the device described in Example 1, above. Then all experimental and control Medibags were placed on a platelet shaker for storage for 5 days. The same experiments were repeated several times to obtain more statistically meaningful data, as represented by “n”, the number of data points represented, in the graphs of FIGS. 21-24, discussed below.

R17 bacteriophage [1] = assay: R17 bacteriophage inactivation at constant concentration, varying doses of UV light; format: cell-based; details: 1.0-3.0 J/cm^2, FIGS. 11-17
Method: Compounds of the present invention were also tested at a constant concentration for varying doses of UV light. Three sets of 1.5 mL tubes were prepared containing 0.6mL aliquots of R17 in DMEM (prepared as described above). The compound tested was added at the desired concentration and the samples were vortexed. The samples were then irradiated at intervals of 1.0 J/cm^2, until 3.0 J/cm^2 was reached. Between each 1.0 J/cm^2 interval, 100 μL was removed from each sample and placed in the first corresponding dilution tube, then five sequential dilutions were performed for each compound tested, at all 3 irradiation doses, as described above in this example.
Then 50 μL of Hfr 3000 bacteria was added to each tube, 3 mL of top agar was added and the tube contents were vortexed The contents of each tube was poured into its own LB plate and the plates were incubated overnight at 37° C. Plaques were counted by visual inspection the following morning.

mouse reticulocytes = details: increased dose levels in male Balb/c mice
Method: Male Balb/c mice were then injected with 0.1 ml of a compound solution via the tail vein. At least 3 mice were injected per dose level. Saline only was used as a negative control. For a positive control, cyclophosphamide (cycloPP) was administered at a dose of 30 mg/kg. In the experimental group, the injections were repeated once per day for four days. In the positive control group, the sample was administered only once, on day three. On day 5, several microliters of blood were withdrawn from each subject and smeared on a glass slide. Cells were fixed in absolute methanol and stored in a slide rack.
For analysis, cells were stained with acridine orange and visualized under a fluorescence microscope by counting: (i) the number of reticulocytes per 5000 erythrocytes; and (ii) the number of micronucleated reticulocytes per 1000 reticulocytes. Reticulocytes were distinguished by their red fluorescence due to the presence of RNA. Micronuclei were distinguished by their green fluorescence due to the presence of DNA. The percentage of reticulocytes (%PCE) was then calculated. A decrease in the frequency of […] in the percentage of reticulocytes, is an indication of bone marrow toxicity. The percentage of reticulocytes with micronuclei (%PCE with MN) was also calculated. An increase in %PCE with MN is a measure of clastogenicity.
After initial results were determined, the experiment was repeated using increased dose levels, until: (i) Micronucleus formation was seen; or (ii) Bone marrow toxicity was observed; or (iii) The lethal dose was reached; or (iv) A dose of 5 g/kg was administered.

HIV-1 = details: 1 minute irradiation, starting titer approximately 5.4 logs (Table 11)
[2] = system: Salmonella typhimurium tester strains; assay: Ames Salmonella dark mutagenicity test, overall assessment; format: cell-based; details: two-fold or greater increase in revertants above background and dose dependence
Method: A brief description for each procedure is given here. […] TA97a, TA98, TA1537 and TA1538 are frameshift tester strains. TA100 and TA102 are base-substitution tester strains.
This served as the background controls.
For all experiments, the pre-incubation procedure was used.

R17 bacteriophage [3] = assay: R17 bacteriophage inactivation assay, varying compound concentration; format: cell-based; details: 32 μM; starting titer approx. 7.5 logs; 1 minute irradiation
Method: An r-17 bacteriophage assay was used in this example to predict pathogen inactivation efficiency and to determine nucleic acid binding of the photoreactive binding compounds of the present invention. In the r-17 assay, the bacteriophage was placed in a solution with each compound tested and was then irradiated. The ability of the phage to subsequently infect bacteria and inhibit their growth was measured. The bacteriophage was selected for its relatively accessible nucleic acid such that the culture growth inhibition would accurately reflect nucleic acid damage by the test compounds. The bacteriophage assay for nucleic acid binding to test compounds offers a safe and inexpensive procedure to identify compounds likely to display efficient pathogen inactivation.
The R17 was grown up in Hfr 3000 bacteria, approximate titer 5×10^11. (R17 and Hfr 3000 were obtained from American Tissue Culture Collection (ATCC), Washington, D.C.) The R17 phage stock was added to a solution of 15% fetal bovine serum in Dulbecco's Modified Eagles Medium (DMEM) to a final phage concentration of 10^9/mL. An aliquot (0.5 mL) was transferred to a 1.5 mL snap-top polyethylene tube. An aliquot (0.004-0.040 mL) of the test compound stock solution prepared in water, ethanol or dimethylsulfoxide at 0.80-8.0 mM was added to the tube. Compounds were tested at concentrations between 4 μM and 320 μM. […] The tubes were placed in a light device as described in EXAMPLE 1 and irradiated for between 1 and 10 minutes. Sterile 13 mL dilution tubes were prepared; each test compound required one tube with 0.4 mL of Luria broth (LB) and five tubes containing 0.5 mL of LB broth. To make the dilutions, a 0.100 mL aliquot of the irradiated solution of phage and test compound was added to the first dilution tube of 0.4 mL of media then 0.020 mL of this solution was added to the second tube of 0.5 mL medium (1:25). The second solution was then diluted serially (1:25) into the remaining tubes. To each diluted sample was added 0.050 mL of Hfr 3000 bacteria cultured overnight and 3 mL of molten LB top agar and the mixed materials were poured onto LB broth plates. After the top agar hardened, the plates were incubated at 37° C. overnight. The plaque forming units were then counted the following morning and the titer of the phage remaining after phototreatment was calculated based on the dilution factors.
The following controls were run: the “phage only” in which phage was not treated with test compound and not irradiated (listed as “starting titer” in the tables below); the “UV only” in which the phage was irradiated in the absence of test compound; and the “dark” control in which the phage/test compound solution was not irradiated before it was diluted and plated.

Pseudomonas = assay: Bacterial inactivation, colony forming units; format: cell-based; details: 16 μM; 5 J/cm^2 irradiation; starting titer 6.5 logs
Method: The bacteria, a strain of Pseudomonas, was inoculated into LB with a sterile loop and grown overnight in a shaker at 37° C. Based on the approximation that one OD at 610 mn is equivalent to 5×10^8 colony forming units (cfu)/mL, a 1:10 dilution of the culture was measured on a spectrophotometer, (manufactured by Shimatsu). The bacterial culture was added to a solution of 15% fetal bovine serum in DMEM to a final bacteria concentration of approximately 10^6/mL. An aliquot (0.8 mL) was transferred to a 1.5 mL snap-top polyethylene tube. An aliquot (0.004-0.040 mL) of the test compound stock solution prepared in water, ethanol or dimethylsulfoxide at 0.80-8.0 mM was added to the tube. Compounds were tested at a concentration of 16 μM. The tubes were placed in a light device as described in EXAMPLE 1 and irradiated with 1.3 J/cm^2, 1.2 J/cm^2, and finally 2.5 J/cm^2, for a total of 5 J/cm^2. 150 μL were removed for testing after each pulse period. Sterile 13 mL dilution tubes were prepared; each test compound required one tube with 0.4 mL of LB broth and four tubes containing 0.5 mL of LB broth. […] The colony forming units were then counted the following morning and the titer of the phage remaining after phototreatment was calculated based on the dilution factors. […]

[4] = HPLC retention time as rough estimate of hydrophobicity; format: physicochemical; details: C-18 reversed phase, methanol/KH2PO4 gradient
Method: Adsorption data were then obtained by HPLC analysis on the test and control samples. Specifically, a 200 μl sample volume of PC was removed from each tube following the incubation period (special care being taken to ensure that no adsorbent particles were removed with the test samples). […] The addition of methanol lyses platelets and precipitates plasma proteins so that psoralen contained within the platelets is not excluded by the assay.
Since each of the psoralens were analyzed using the same type of BPLC assay, one can use the psoralens' relative retention times to rank them according to increasing hydrophobicity. […] Strong interactions with cells or plasma proteins could compete with adsorption, thereby interfering with resin binding.

[5] = Adsorption capacity of Amberlite adsorbents for Psoralens A, B and C from PC (Table V); format: physicochemical; details: batch adsorption
Method: Stock solutions (15 mM) of each psoralen ([…], and C) were prepared in DMSO. […] Thereafter, control samples and test samples were prepared for HPLC analysis. Test samples were prepared by adding a 3.0 mL aliquot of each dilution to a 5 mL polypropylene tube containing 0.1 g of adsorbent; control samples were prepared in an analogous manner with the exception that the adsorbent was omitted. The test and control samples were then incubated for 6 hours at 22° C. by rotating gently on a mixer (Barnstead, Thermolyne Model 400110). […] Adsorption data were then obtained by HPLC analysis on the test and control samples. Specifically, a 200 μl sample volume of PC was removed from each tube following the incubation period (special care being taken to ensure that no adsorbent particles were removed with the test samples). […] The addition of methanol lyses platelets and precipitates plasma proteins so that psoralen contained within the platelets is not excluded by the assay. […] The slopes of the calibration curves were determined by linear least square method (y-intercept constrained to zero). […] The amount (μmoles) of psoralen which the adsorbent had removed from the PC was calculated [V(Co-Cf)]. […] As previously discussed, the slope of the adsorbent isotherm, K (L/g), is termed the adsorption constant and can be determined by a linear regression of the adsorption data.

Cc1cc(=O)oc2c(C)c3oc(CNCCCCN)c(C)c3cc12 [Compound 17, 5′-(6-amino-2-aza)hexyl-4,4′,8-trimethylpsoralen]
platelet count, treated against controls (in words) (platelets): higher platelet count than samples treated with light alone
GMP-140 expression, treated sample (PCD) against day 5 untreated control (in words) (p-selectin (GMP140)): little or no difference
R17 inactivation efficiency compared with AMT (in words) (R17 bacteriophage [1]): more efficient at inactivating R17 than was AMT
bone marrow toxicity and micronucleus formation on dose escalation (in words) (mouse reticulocytes): the acutely lethal dose was reached before there were any signs of bone marrow toxicity or micronucleus formation
HIV Log Kill (HIV-1; 16 μM): 1.2 log
HIV Log Kill (HIV-1; 32 μM): 2.9 log
HIV Log Kill (HIV-1; 64 μM): 3.4 log

COc1c2occc2cc2ccc(=O)oc12 [Compound 8-MOP, 8-Methoxypsoralen, reference compound]
mutagenic response in the Ames assay (in words) [2]: weak base-substitution mutagen in TA102 at 500 μg/plate
R17 log kill (32 μM) (R17 bacteriophage [3]): 0 log
log kill of Pseudomonas (Pseudomonas): 1.9 logs

CC[N+](CC)(CC)Cc1c(C)oc2c(C)c3oc(=O)cc(C)c3cc12 [Psoralen A, 4′-(triethylamino) methyl-4,5′,8-trimethylpsoralen]
HPLC retention time (rough estimate of hydrophobicity) [4]: 7.8 min

COc1c2occc2c(Br)c2ccc(=O)oc12 [Psoralen B, 5-bromo-8-methoxypsoralen]
HPLC retention time (rough estimate of hydrophobicity) [4]: 20.0 min

CCN(CC)CCCOc1c2occc2c(Br)c2ccc(=O)oc12 [Psoralen C, 5-bromo-8-(diethylaminopropyloxy)-psoralen]
HPLC retention time (rough estimate of hydrophobicity) [4]: 12.0 min
ease of removal from PC (in words) [5]: most easily removed from PC
